Assay results taken from patent US10500198B2, “Bis-benzylidine piperidone proteasome inhibitor with anticancer activity” (The Johns Hopkins University, priority 2013, dated 2019).
Structures can show the parent of a compound that is named as a salt. Where two headings read alike, the source gives them in different places. Where a SMILES comes first, the peptide text is derived from it. The star is where a group is joined. Cbz = O=C(OCc1ccccc1)*

Assays:
Test in all cases: Cell viability after 48-hr treatment (Table 1)
[1] = system: HeLa; type: cell-based, human; details: for potency in cell killing and polyubiquitin accumulation / functional assays relative to RA190: HeLa cells, FIGS. 1I, 9I, 10A-10C; for IC50: read-out: IC50, HeLa
Experimental: (§1) Cell viability was assayed using CellTiter 960 AQueous One Solution Reagent (Promega, Madison, Wis.). Cells seeded at the concentration of 1,000 cells/well for HeLa, 5,000 cells/well for ES2 and HCT116 and 10,000-20,000 cells/well for other cell lines in 100 μL medium in 96-well plate were treated with RA series compounds at specified concentrations. […]

[2] = system: OVCAR3; type: cell-based, human; details: XTT assay
Experimental: as §1

[3] = system: CasKi; type: cell-based; details: read-out: IC50, CasKi
Experimental: (§2) Cell viability was assayed using CellTiter 960 AQueous One Solution Reagent (Promega, Madison, Wis.). Cells seeded at the concentration of 1,000 cells/well for HeLa, 5,000 cells/well for ES2 and HCT116 and 10,000-20,000 cells/well for other cell lines in 100 μL medium in 96-well plate were treated with RA series compounds at specified concentrations. After the indicated periods, cells were incubated according to the manufacturer's protocol with the MTS labeling mixture for 1-2 hr and absorbance at 490 nm measured using a Benchmark Plus microplate spectrophotometer (BIO-RAD).

[4] = system: HOK-16B; type: cell-based; details: read-out: IC50, HOK-16B
Experimental: as §2

[5] = system: HT3; type: cell-based; details: read-out: IC50, HT3
Experimental: (§3) Cells seeded at the concentration of 1,000 cells/well for HeLa, 5,000 cells/well for ES2 and HCT116 and 10,000-20,000 cells/well for other cell lines in 100 μL medium in 96-well plate were treated with RA series compounds at specified concentrations. […]

[6] = system: HaCaT; type: cell-based; details: read-out: IC50, HaCaT
Experimental: as §3

[7] = system: SiHa; type: cell-based; details: read-out: IC50, SiHa
Experimental: as §3

[8] = system: C33A; type: cell-based; details: read-out: IC50, C33A
Experimental: as §1

[9] = system: FaDu; type: cell-based; details: read-out: IC50, FaDu
Experimental: as §1

[10] = system: SKOV3; type: cell-based; details: read-out: IC50, SKOV3
Experimental: as §1

Molecule	potency in cell killing and polyubiquitin accumulation / functional assays relative to RA190 [1]	IC50 ([1]; 48-hr treatment, XTT assay) [µM]	IC50 [2] [µM]	IC50 ([3]; 48-hr treatment, XTT assay) [µM]	IC50 ([4]; 48-hr treatment, XTT assay) [µM]	IC50 ([5]; 48-hr treatment, XTT assay) [µM]	IC50 ([6]; 48-hr treatment, XTT assay) [µM]	IC50 ([7]; 48-hr treatment, XTT assay) [µM]	IC50 ([8]; 48-hr treatment, XTT assay) [µM]	IC50 ([9]; 48-hr treatment, XTT assay) [µM]	IC50 ([10]; 48-hr treatment, XTT assay) [µM]	further results
N[C@@H](Cc1ccccc1)C(=O)N1CC(Cc2ccc(Cl)c(Cl)c2)C(O)C(Cc2ccc(Cl)c(Cl)c2)C1 (some centres unmarked) [RA190R]	dramatically reduced activity	–	–	–	–	–	–	–	–	–	–	–
N[C@@H](Cc1ccccc1)C(=O)N1C/C(=C\c2ccc(Cl)c(Cl)c2)C(=NO)/C(=C/c2ccc(Cl)c(Cl)c2)C1 [RA190O]	dramatically reduced activity	–	–	–	–	–	–	–	–	–	–	–
3,5-bis(3,4-dichlorobenzylidene)-1-(S-2-amino-3-(4-hydroxy)-phenyl)-piperidin-4-one HCl salt [RA213]	–	0.6	> 5	0.6	1.5	> 5	> 2.5	2.5	> 5	> 5	> 2.5	–
CC(C)C[C@@H](C=O)NC(=O)[C@H](CC(C)C)NC(=O)[C@H](CC(C)C)NC(=O)OCc1ccccc1 [MG132, reference compound] (Cbz-Leu-Leu-Leu-aldehyde)	–	–	–	–	–	–	–	–	–	–	–	IC50 ([1]; Homo sapiens, HeLa, 48 h): 0.75 µM; IC50 ([3]; Homo sapiens, Ca-Ski, 48 h): 0.5 µM; IC50 ([4]; 48 h): 0.7 µM; IC50 ([5]; Homo sapiens, HT-3, 48 h): > 5 µM; IC50 ([6]; Homo sapiens, HaCaT, 48 h): > 2.5 µM; IC50 ([7]; Homo sapiens, SiHa, 48 h): 2 µM; IC50 ([8]; Homo sapiens, C-33-A, 48 h): > 5 µM; IC50 ([9]; Homo sapiens, FaDu, 48 h): > 2.5 µM; IC50 ([10]; Homo sapiens, SK-OV-3, 48 h): > 2.5 µM
N[C@@H](Cc1ccccc1)C(=O)N1CC(=Cc2ccccc2)C(=O)C(=Cc2ccccc2)C1 [RA181, 3,5-dibenzylidene-1-(S-2-amino-3-phenyl)-piperidin-4-one-HCl salt]	–	0.35	> 5	2	> 5	> 5	> 2.5	2	> 5	> 5	> 2.5	–
N[C@@H](Cc1ccccc1)C(=O)N1CC(=Cc2ccccc2Cl)C(=O)C(=Cc2ccccc2Cl)C1 [RA166, 3,5-bis(2-chlorobenzylidene)-1-(S-2-amino-3-phenyl)-piperidin-4-one-HCl salt]	–	0.6	> 5	1.5	> 5	> 5	> 2.5	2	> 5	> 5	> 2.5	–
